Each structure is given as a SMILES string.

Experimental findings from patent US20250381110A1, “SKIN CARE COMPOSITION AND METHOD OF USING THE SAME” (THE PROCTER & GAMBLE COMPANY, priority 2024, published 2025) are described below.

Test [1] deals with p62-dependent mitophagy. Briefly: Luciferase-p62 clearance assay, stated for HDFs. To be noted: 5 μM; HDFs. The test is classed as cell-based, human. On the procedure: (§1) FIGS. 15A-15C show hydroxycinnamic acids (HCAs) tested in mitophagy assays in primary HDFs. […] 80,000 mixed aged Fibroblasts expressing the Su9-Halo-GFP reporter were treated for 48 h with the indicated HCAs. A change in the reporter excitation occurs because the GFP tag is quenched in the lysosome environment, indicating mitophagy.
To identify p62-dependent materials which increase mitophagy, a Luciferase-p62 Assay was established. This method provides an approach to measure the ability of a material to modulate p62-dependent mitophagy by using an inducible firefly luciferase-p62 (Fluc-p62) reporter cell system. In this assay, p62 levels are driven by doxycycline treatment. After levels increased, expression of Fluc-p62 is turned off by removal of doxycycline, materials are then added and assessed for how they affect clearance of Fluc-p62 protein, which is proportionate to cellular mitophagy rates (Kelly et al.). […]
Test materials including bioactive materials were screened in mouse embryonic fibroblasts (MEFs, Harada et al.) expressing the TET-inducible p62-fluc construct as previously described (Brown et al.). […] Subsequently, cells were treated with test materials for 48 hours in normal growth medium and analysed using ONE-Glo™+Tox Luciferase Reporter and Cell Viability Assay (Promega) by following the manufacturer's protocol.

Test [2] concerns primary human dermal fibroblasts (HDFs). Briefly: Mitophagy assay, Su9-Halo-GFP reporter, fluorescence microscopy. Format: cell-based. On the procedure:
as §1
Primary human dermal fibroblasts (HDFs) were cultured in DMEM supplemented with 10 percent FBS, 100 units per milliliter penicillin/streptomycin, and 2 millimolar L-glutamine in a humidified atmosphere containing 5 percent carbon dioxide at 37 degrees Celsius. Stable expression of mt-mKeima was achieved through retroviral transduction (Kelly et al.). Cells stably expressing mt-mKeima were seeded in a 35 mm glass bottom dish (MatTek). The live-cell mt-Keima signal was obtained via widefield microscopy using the DMi8 and 2 filtersets to obtain the acidic (561 nm excitation, “red”) and pH-neutral (480 nm, “green”) mKeima signals. Using FIJI/ImageJ, a macro was applied to the mt-mKeima signal to extract mitolysosomes. […] Mitophagy events were determined as the number of puncta per cell. […] Fluorescence images were obtained using an LSM700 confocal microscope (Zeiss). The number of mitolysosomes (GFP-Halo+puncta) per cell was quantified using proprietary plugin in Fiji/ImageJ. […]

Test [3] deals with p62-dependent mitophagy. Briefly: Luciferase-p62 assay (Fluc-p62 clearance) in mouse embryonic fibroblasts. The test is classed as cell-based. The conditions noted are these: for Mean Luminescence: Luciferase-p62 assay, mouse embryonic fibroblasts (MEFs), compounds at 10 μM; for % Activity over baseline: percentage of Luciferase-p62 clearance relative to baseline (mean luminescence in the absence of doxycycline induction); for % Activity over baseline / % Activity relative to Rapamycin: MEFs, 10 μM; for % Activity relative to Rapamycin: percentage of activity relative to rapamycin tested in the same experiment at the same concentration. The procedure, abridged: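 MEFs with doxycycline-inducible Fluc-p62; after induction, doxycycline removed and cells treated 48 h with compounds at 10 μM. Fluc-p62 clearance, taken as mitophagy, read by ONE-Glo+Tox luciferase with viability. Vehicle (DMSO) as negative control; activity also expressed relative to rapamycin.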

Regarding `O=C(O)/C=C/c1ccc(O)cc1` [p-coumaric acid], the “p62-dependent mitophagy vs. untreated control cells” value in the test on p62-dependent mitophagy [1] is listed as “significantly increases p62-dependent mitophagy”. Moreover, the “mitophagy events by fluorescence microscopy” value in test [2] (8 μM, 48 h, mixed aged fibroblasts, Su9-Halo-GFP reporter) is listed as “increases mitophagy events”. In addition, in test [2] (0.1-8 μM, HDFs), the “increase of basal mitophagy levels, dose-response comparison with ferulic acid” value is reported as “outperforms an O-methylated form (ferulic acid)”.

Take `CC[C@H](N)C(=O)O` [L(+)-2-Aminobutyric acid]: in the test with p62-dependent mitophagy [3], the “Mean Luminescence” value amounted to 981.68, the “% Activity over baseline” value is recorded as 39.33% and the “% Activity relative to Rapamycin” value amounted to 70.87%.

As to `CCOC(=O)c1c(C)n(C)c2ccc(O)cc12` [Mecarbinate], in the test on p62-dependent mitophagy [3], the “Mean Luminescence” value is 799.96, the “% Activity over baseline” value worked out at 50.56% and the “% Activity relative to Rapamycin” value was 91.10%.

`Clc1ccc(COC(Cn2ccnc2)c2ccc(Cl)cc2Cl)cc1` (stereo not drawn) [Econazole nitrate]: in the test with p62-dependent mitophagy [3], the “Mean Luminescence” value turned out to be 359.76, the “% Activity over baseline” value worked out at 77.77% and the “% Activity relative to Rapamycin” value worked out at 140.12%.

`CC(C)c1cc2c(c(O)c1O)[C@@]1(C(=O)O)CCCC(C)(C)[C@@H]1CC2` [Carnosic acid]: in the test with p62-dependent mitophagy [3], the “Mean Luminescence” value is listed as 661.96, the “% Activity over baseline” value is listed as 59.09% and the “% Activity relative to Rapamycin” value amounted to 106.47%.

With `COc1ccc(C(=O)O)cc1OC` [Veratric acid], in the test with p62-dependent mitophagy [3], the “Mean Luminescence” value was found to be 937.88, the “% Activity over baseline” value is 42.04% and the “% Activity relative to Rapamycin” value turned out to be 75.74%.

As to `C=C(C)[C@H]1CC=C(C)C(=O)C1` [(S)-(+)-Carvone], in the test on p62-dependent mitophagy [3], the “Mean Luminescence” value came out at 802.50, the “% Activity over baseline” value came out at 50.40% and the “% Activity relative to Rapamycin” value is 90.82%.

With `CC[C@@H]1/C=C(\C)C[C@H](C)C[C@H](OC)[C@H]2O[C@@](O)(C(=O)C(=O)N3CCCC[C@H]3C(=O)O[C@H](/C(C)=C/[C@@H]3CC[C@@H](O)[C@H](OC)C3)[C@H](C)[C@@H](O)CC1=O)[C@H](C)C[C@@H]2OC` [Ascomycin(FK 520)], in the test with p62-dependent mitophagy [3], the “Mean Luminescence” value worked out at 640.39, the “% Activity over baseline” value came out at 60.42% and the “% Activity relative to Rapamycin” value is recorded as 108.87%.

For the compound `CC(=O)c1cc(O)ccc1O` [2′,5′-Dihydroxyacetophenone], in the test on p62-dependent mitophagy [3], the “Mean Luminescence” value stood at 709.63, the “% Activity over baseline” value came to 56.14% and the “% Activity relative to Rapamycin” value was determined as 101.16%.

As for `O=C(O)Cc1cccc(O)c1` [3-Hydroxyphenylacetic acid], in the test on p62-dependent mitophagy [3], the “Mean Luminescence” value was determined as 888.33, the “% Activity over baseline” value came out at 45.10% and the “% Activity relative to Rapamycin” value turned out to be 81.26%.

`COc1cc(C)c(/C=C/C(C)=C/C=C/C(C)=C/C(=O)O)c(C)c1C` [Acitretin]: in the test on p62-dependent mitophagy [3], the “Mean Luminescence” value is 883.02, the “% Activity over baseline” value turned out to be 45.43% and the “% Activity relative to Rapamycin” value is reported as 81.85%.

On to `OC[C@H]1O[C@H](OCC2O[C@@H](O)[C@H](O)[C@@H](O)[C@@H]2O)[C@H](O)[C@@H](O)[C@H]1O` (stereo partly drawn) [Melibiose], for which, in the test on p62-dependent mitophagy [3], the “Mean Luminescence” value is reported as 715.78, the “% Activity over baseline” value turned out to be 55.76% and the “% Activity relative to Rapamycin” value is given as 100.47%.

Take `CC[C@H]1CN2CC[C@]3(C(=O)Nc4ccccc43)[C@@H]2C[C@@H]1/C(=C\OC)C(=O)OC` [Rhynchophylline]: in the test with p62-dependent mitophagy [3], the “Mean Luminescence” value amounted to 953.80, the “% Activity over baseline” value worked out at 41.05% and the “% Activity relative to Rapamycin” value turned out to be 73.97%.
